Data from ChEMBL document CHEMBL1201862, “PubChem BioAssay data set” (2004).
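All cell lines were grown in 96-well plates and treated with compound for 48 hours. Here, GI50 denotes the concentration required for 50% inhibition of growth.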 Active and inactive are the calls of the source. No stated cut-off is given here; in the data, active = GI50 up to about 1.1 µM and inactive = higher.

Legend:
Experiment in all cases: NCI-60 cell line screen, 48 h
[1] = system: DMS-273
[2] = system: LXFL 529
[3] = system: M19-MEL
[4] = system: XF498
[5] = system: DLD-1
[6] = system: HOP-18
[7] = system: KM-20L2
[8] = system: DMS-114
[9] = system: RXF 631

SMILES | GI50 [1] | GI50 [2] | GI50 [3] | GI50 [4] | GI50 [5] | GI50 [6] | GI50 [7] | GI50 [8] | GI50 [9]
Oc1cc(-c2ccc3c(c2)OCO3)nc2cc3c(cc12)OCO3 | 21.3 µM (inactive) | 68.4 µM (inactive) | 20.5 µM (inactive) | 31.8 µM (inactive) | 55.8 µM (inactive) | 72.6 µM (inactive) |  |  | 
NC1=C(Cl)C(=O)c2ccccc2C1=O | 5.82 µM (inactive) | 12.6 µM (inactive) | 0.518 µM (active) | 11.2 µM (inactive) | 8.75 µM (inactive) | 9.66 µM (inactive) | 9.12 µM (inactive) | 3.89 µM (inactive) | 
COc1ccc(C(O)/C(=C/n2ccnc2)c2ccccc2)cc1OC (stereo not given) | > 100 µM (inactive) |  | > 100 µM (inactive) | > 100 µM (inactive) | > 100 µM (inactive) | > 100 µM (inactive) | > 100 µM (inactive) | > 100 µM (inactive) | > 100 µM (inactive)
C=CCNC(=O)NCCCCC(NC(C)=O)C(=O)NCc1ccccc1 (stereo not given) | > 100 µM (inactive) | > 100 µM (inactive) | > 100 µM (inactive) | > 100 µM (inactive) |  | > 100 µM (inactive) | > 100 µM (inactive) | > 100 µM (inactive) | 
Cc1ccc(C(=O)N2CCN(C(=O)c3ccc(C)cc3)c3ccccc32)cc1 | 2.05 µM (inactive) | 6.5 µM (inactive) | 4.39 µM (inactive) | 4.93 µM (inactive) | 4.23 µM (inactive) | 17.7 µM (inactive) | 3.28 µM (inactive) | 3.78 µM (inactive) | 
CCC1(O)C(=O)OCc2c1cc1n(c2=O)Cc2c-1nc1ccccc1c2OC (stereo not given) | < 0.01 µM (active) | 0.434 µM (active) | 0.0438 µM (active) |  | 0.488 µM (active) | 0.372 µM (active) | 0.0512 µM (active) | < 0.0117 µM (active) | 
COc1ccc2c(c1)Oc1cc(O)ccc1[C@@H]2c1ccccc1C(=O)NC(C)c1ccccc1 (stereo not given in full) | 14.3 µM (inactive) | 14.2 µM (inactive) | 15.9 µM (inactive) |  | 13.9 µM (inactive) |  | 14.9 µM (inactive) | 12.7 µM (inactive) | 
N#C/C(=C1\SCC(=O)N1c1ccccc1)c1nc2ccccc2[nH]1 | > 100 µM (inactive) | > 100 µM (inactive) | > 100 µM (inactive) | > 100 µM (inactive) | > 100 µM (inactive) |  | > 100 µM (inactive) | > 100 µM (inactive) | 
CCOC(=O)C1=C(C)N(NC(N)=O)C2(N)N(NC(N)=O)C(C)=C(C(=O)OCC)C12C#N (stereo not given) | > 100 µM (inactive) | > 100 µM (inactive) | > 100 µM (inactive) | > 100 µM (inactive) | > 100 µM (inactive) |  | > 100 µM (inactive) | > 100 µM (inactive) | > 100 µM (inactive)
O=C1CC(O)C=C1Nc1ccc(Cl)cc1 (stereo not given) | 13.1 µM (inactive) | 6.76 µM (inactive) | 25.2 µM (inactive) |  | 22.3 µM (inactive) | 29.4 µM (inactive) | 0.708 µM (active) | 26.4 µM (inactive) | 31.4 µM (inactive)
Cc1ccc(NC(=O)CC/C(CC(=O)C(C)(C)C)=N\NC(=O)C[n+]2ccccc2)cc1C | > 100 µM (inactive) | > 100 µM (inactive) | > 100 µM (inactive) | 87.7 µM (inactive) |  | > 100 µM (inactive) | > 100 µM (inactive) | 73.6 µM (inactive) | 
